pEC50: −log10 of the molar value.
How the values were obtained:
Plasmodium falciparum [1] = assay: NOVARTIS: Inhibition of Plasmodium falciparum 3D7 (drug-susceptible) proliferation in erythrocyte-based infection assay; type: functional, organism-based
Plasmodium falciparum [2] = assay: NOVARTIS: Inhibition of Plasmodium falciparum W2 (drug-resistant) proliferation in erythrocyte-based infection assay; type: functional, organism-based; conditions: for pEC50: read-out: EC50
[3] = NOVARTIS: Cytotoxicity against human hepatocellular carcinoma cell line (Huh7); type: toxicity, cell-based, Huh-7; conditions: Huh7 cells (hepatocellular carcinoma cell line)

Compound | pEC50 (Plasmodium falciparum [1]; Plasmodium falciparum, 3D7) | pEC50 (Plasmodium falciparum [2]; Plasmodium falciparum, W2) | CC50 [3] | pEC50 (Plasmodium falciparum [1]) | pEC50 (Plasmodium falciparum [2]) | EC50 (Plasmodium falciparum [2])
CCCCCN(C(=O)c1ccc(C)cc1)C(C)c1nc2ccccc2c(=O)n1-c1ccccc1CC (stereo not drawn) | < 5.79 | 6.05 | > 10000 nM | – | – | –
COc1ccc(C=Cc2ccc3ccccc3[n+]2C)cc1OC | 6.36 | 6.86 | > 100000 nM | – | – | –
COC(=O)c1sc(-c2ccccc2)cc1NC(=O)c1ccc(S(=O)(=O)N2CCCCCC2)cc1 | < 5.90 | < 6.30 | > 14100 nM | – | – | –
Cc1ccc(OCC(=O)Nc2cccc(C(=O)O)c2)c(Br)c1 | < 5.90 | < 7.46 | > 10000 nM | – | – | –
Cc1ccc(Cn2c(C)c3cnn(CC(=O)O)c(=O)c3c2C)cc1 | < 5.05 | 6.03 | > 100000 nM | – | – | –
COc1ccc(/C=C2/SC(=N)N(c3ccccc3OC)C2=O)cc1 | 6.46 | 6.54 | > 10000 nM | – | – | –
COc1ccc(OC)c(NC2=C(Cl)C(=O)N(c3ccc(C)c(Cl)c3)C2=O)c1 | 5.29 | < 4.90 | > 100000 nM | – | – | –
O=C(CCNS(=O)(=O)c1ccc(Br)s1)N1CCc2ccccc2C1 | < 5.25 | < 4.90 | > 100000 nM | – | – | –
O=C1Nc2ccc(S(=O)(=O)Nc3ccc(NS(=O)(=O)c4ccc5c6c(cccc46)C(=O)N5)cc3)c3cccc1c23 | < 5.93 | < 5.90 | > 8120 nM | – | – | –
O=C(NCc1c(Cl)cccc1Sc1ccc(Cl)cc1)c1ccc2c(c1)CCO2 | 7.16 | 7.25 | > 10000 nM | – | – | –
O=C(O)[C@@H]1C[C@H](CP(=O)(O)O)CCN1 [SELFOTEL] | 5.88 | < 5.92 | > 5060 nM | – | – | –
COc1cc(OC)nc(C(Sc2ccc(NC(=O)c3cccs3)cc2)c2ccccc2)n1 (stereo not drawn) | 6.76 | 6.65 | > 10000 nM | – | – | –
O=C(NCCC(c1ccccc1)c1ccccc1)c1cccc([N+](=O)[O-])c1 | 6.52 | 6.21 | > 10000 nM | – | – | –
CCc1ccccc1N(CC(=O)NC1CCCCC1)C(=O)CCC(=O)Nc1ccccn1 | 6.08 | 5.90 | > 100000 nM | – | – | –
COc1ccc(-c2cc(C(F)(F)F)n3nc(C(=O)NC4CCCCC4)c(Cl)c3n2)cc1OC | < 6.36 | 7.46 | > 4020 nM | – | – | –
CCOC(=O)C1=C(c2ccccc2)N=c2sc(=Cc3c(C)n(Cc4ccc(F)cc4)c4ccccc34)c(=O)n2C1c1cccc(OC)c1OC (stereo not drawn) | 5.95 | 5.34 | > 100000 nM | – | – | –
COc1cc(OC)cc(-n2nc(C(=O)NCCCN3CC(C)CC(C)C3)c3ccccc3c2=O)c1 (stereo not drawn) | < 4.90 | 5.61 | > 100000 nM | – | – | –
c1cncc(-c2cc(N3CCc4ccccc4C3)nc(-c3ccncc3)n2)c1 | 6.22 | 6.10 | > 10000 nM | – | – | –
COc1ccc(C(OCC(=O)N2CCSCC2)c2ccncc2Cl)cc1 (stereo not drawn) | < 4.91 | 5.84 | > 100000 nM | – | – | –
COc1ccc2c(c1)CC1c3c(cc4c(c3-2)OCO4)CCN1C (stereo not drawn) | 7.41 | 6.92 | 15600 nM | – | – | –
Cc1ccc(-c2nnc(SCCCC(=O)NC(Cc3ccccc3)c3ccccc3)n2-c2cccc(Cl)c2)cc1 (stereo not drawn) | < 4.90 | 6.21 | > 27600 nM | – | – | –
Nc1ccc(-c2nc3cc(Cc4ccc5[nH]c(-c6ccc(N)cc6)nc5c4)ccc3[nH]2)cc1 | 6.61 | 7.20 | 17900 nM | – | – | –

Compound | pEC50 (Plasmodium falciparum [1]; Plasmodium falciparum, 3D7) | pEC50 (Plasmodium falciparum [2]; Plasmodium falciparum, W2) | CC50 [3] | pEC50 (Plasmodium falciparum [1]) | pEC50 (Plasmodium falciparum [2]) | EC50 (Plasmodium falciparum [2])
CC(C)c1ccc2c(c1)c1c3c([n+](C)ccn32)CCC1 | 5.76 | 5.58 | 31800 nM | – | – | –
Clc1ccc(-n2cc(-c3ccccc3)c3c(N4CCC(Cc5ccccc5)CC4)ncnc32)cc1 | < 5.00 | < 5.40 | > 100000 nM | – | – | –
Cc1ccc(Sc2cc(C(=O)NCc3ccco3)c3ccccc3n2)cc1 | < 5.16 | 5.18 | > 100000 nM | – | – | –
CCN1C(=Cc2sc3ccccc3[n+]2C)C=Cc2ccc(C)cc21 | – | – | > 11800 nM | 5.78 | < 5.85 | –
COc1cc(/C=C/C(=O)Nc2ccc3nc(N4CCN(c5ncccn5)CC4)cc(C)c3c2)cc(OC)c1OC | 5.88 | 6.13 | > 10000 nM | – | – | –
CCN1CCN(Cc2c(O)ccc3c(=O)c(Oc4ccccc4Br)c(C(F)(F)F)oc23)CC1 | 5.86 | 6.42 | > 100000 nM | – | – | –
Nc1nc(N)c2cc(S(=O)(=O)N3CCCC3)ccc2n1 | 7.23 | < 5.90 | 12900 nM | – | – | –
CC(C)CCN(CCC(C)C)CC(O)Cn1c2ccc(Br)cc2c2cc(Br)ccc21 (stereo not drawn) | 5.83 | 6.51 | > 100000 nM | – | – | –
CC(C)CC(=O)OC1C(N2CCCCC2)c2c(ccc(C=CC(=O)N3CCCCC3)c2O)OC1(C)C (stereo not drawn) | 5.58 | < 4.91 | > 100000 nM | – | – | –
CCOC(=O)c1c(NC(=O)CSc2nc3c(c(=O)n(C)c(=O)n3C)n2C(C)C)sc2c1CCCC2 | 5.81 | < 5.90 | > 10000 nM | – | – | –
COc1cccc(Nc2nc(NCCO)c3ccccc3n2)c1 | 6.94 | 6.51 | 21100 nM | – | – | –
CCOC(=O)C1=C(c2ccccc2)N=c2sc(=Cc3cc(OC)c(OC)c(OC)c3)c(=O)n2C1c1c(OC)ccc2ccccc12 (stereo not drawn) | < 5.11 | – | > 100000 nM | – | – | No fit
CCC[P+](CCC)(CCC)CC1OCc2ccccc2CO1 | 5.74 | 5.44 | > 100000 nM | – | – | –
CCCN1CCC(N2C[C@@H](NCc3ccc4c(c3)c3ccccc3n4CC)C[C@H]2C(=O)NCC)CC1 | < 6.60 | 6.49 | > 6380 nM | – | – | –
ClC12CC3CC(C1)CC(n1nnc4ccccc41)(C3)C2 | < 5.90 | < 5.99 | > 10000 nM | – | – | –
COc1cccc(C(=O)Oc2ccccc2-c2nc3ccccn3c2NC(C)(C)CC(C)(C)C)c1 | 6.57 | 7.48 | > 10000 nM | – | – | –
O=C(Cn1c(-c2ccccc2)c[n+]2ccsc12)c1ccccc1 | 6.29 | 5.92 | > 10000 nM | – | – | –
CCc1nc(N)nc(N)c1-c1ccc(Cl)cc1 [PYRIMETHAMINE] | 7.50 | 7.84 | 45600 nM | – | – | –
N#Cc1c(N)nc(C(Cl)(Cl)Cl)nc1-c1ccccc1 | 6.30 | 6.74 | > 100000 nM | – | – | –
CCN(CC)Cc1cc(Nc2nc3ccccc3[nH]2)cc(CN(CC)CC)c1O | 6.06 | < 5.90 | > 10000 nM | – | – | –
COc1nccnc1NS(=O)(=O)c1ccc(NC(=O)c2cc3ccccc3oc2=O)cc1 | < 5.90 | < 6.37 | > 10000 nM | – | – | –
Oc1cccc(-c2nc(-c3ccccc3)c(-c3ccc4oc5ccc(-c6[nH]c(-c7cccc(O)c7)nc6-c6ccccc6)cc5c4c3)[nH]2)c1 | 5.63 | 6.00 | 20400 nM | – | – | –

Compound | pEC50 (Plasmodium falciparum [1]; Plasmodium falciparum, 3D7) | pEC50 (Plasmodium falciparum [2]; Plasmodium falciparum, W2) | CC50 [3] | pEC50 (Plasmodium falciparum [1]) | pEC50 (Plasmodium falciparum [2]) | EC50 (Plasmodium falciparum [2])
CCN1CCN(C/C=C/c2ccccc2[N+](=O)[O-])CC1 | < 5.90 | 5.85 | > 10000 nM | – | – | –
CC(C)CNc1nc(NCCCn2ccnc2)ncc1C(=O)NCCc1ccccc1 | 6.56 | 6.16 | > 10000 nM | – | – | –
CCCCNC(=O)C1CCC(CN(Cc2c(Cl)cccc2Cl)S(=O)(=O)c2ccc(Br)cc2)CC1 (stereo not drawn) | 6.26 | 6.04 | > 100000 nM | – | – | –
COc1cc(OC)c(N(C)S(=O)(=O)c2cccc(C(=O)OCC(=O)Nc3ccccc3C(C)=O)c2)cc1Cl | 5.08 | 5.14 | > 100000 nM | – | – | –
Cc1ccn2c(NC(C)(C)CC(C)(C)C)c(-c3ccccc3OC(=O)CC(C)C)nc2c1 | 6.11 | > 7.94 | > 10000 nM | – | – | –
Nc1ccc2nc3ccc(N)cc3[s+]c2c1 | 7.07 | 6.84 | 11600 nM | – | – | –
Cc1cc(N2CCCC2)nc2ccc(NC(=S)NCCCN3CCN(Cc4ccccc4)CC3)cc12 | 6.93 | 6.18 | 55500 nM | – | – | –
COc1ccccc1Nc1nc(NCc2ccccc2)c2ccccc2n1 | 6.51 | 6.67 | 19600 nM | – | – | –
O=C1c2ccccc2-c2nnc(-c3ccccc3)cc21 | 6.57 | 6.41 | > 10000 nM | – | – | –
CCOC(=O)c1sc2ncnc(NCc3ccc(F)cc3)c2c1C | < 4.90 | < 5.44 | > 100000 nM | – | – | –
O=C(CCl)Nc1ccc(OC(F)F)cc1 | 6.50 | 6.79 | 18100 nM | – | – | –
O=C(CN1CCCC1)Nc1ccc(Cc2ccc(NC(=O)CN3CCCC3)cc2)cc1 | 6.51 | 6.44 | 18800 nM | – | – | –
COc1ccccc1N1CCN(Cc2cc(C(C)C)c(C)cc2O)CC1 | 6.21 | 7.07 | 77400 nM | – | – | –
CC=C[C@H]1O[C@@](O)([C@@H](C)C(O)C(C)[C@H]2OC(=O)C(OC)=CC(C)=C[C@@H](C)[C@H](O)C(CC)[C@@H](O)[C@H](C)CC(C)=CC=C[C@@H]2OC)C[C@@H](O[C@H]2C[C@@H](O)[C@H](OC(N)=O)[C@@H](C)O2)[C@@H]1C (stereo partly drawn) | 5.93 | < 5.90 | > 10000 nM | – | – | –
CS(=O)(=O)c1cnc2ncnn2c1C1CCCN(C(=O)c2ccccn2)C1 (stereo not drawn) | 6.51 | < 5.90 | > 10000 nM | – | – | –
Cc1ccc(-n2c(-c3ccccc3)cc(C=NNC(=O)c3cccc(-n4c(C)ccc4C)c3)c2-c2ccccc2)cc1 | 6.06 | 6.16 | > 100000 nM | – | – | –
COc1cccc(NC(=O)c2ccc(NCCCC3CCCCCC3)c([N+](=O)[O-])c2)c1 | 6.65 | 6.41 | 28800 nM | – | – | –
O=[N+]([O-])c1cc([N+](=O)[O-])c2cccnc2c1Nc1cccc2cccnc12 | 5.09 | 5.19 | 59900 nM | – | – | –
Cc1ccc(NC(=O)c2ccc(NCCCN3CCC(C)CC3)c([N+](=O)[O-])c2)cc1F | 6.72 | 6.48 | > 100000 nM | – | – | –
CCOC(=O)c1cnc2c(C)cccc2c1Nc1ccc(C(C)=O)cc1 | 6.93 | 7.07 | > 100000 nM | – | – | –
COc1ccc(C2CC(=O)C3=C(C2)NC(C)=C(C(=O)OC2CCCCC2)C3c2ccc(F)cc2)cc1OC (stereo not drawn) | 6.86 | 7.28 | 15200 nM | – | – | –
Cc1ccc(C)n1-c1ccc(C(=O)N2CCC(C)CC2)cc1 | 5.29 | 5.69 | > 100000 nM | – | – | –

Reference: ChEMBL document CHEMBL1156829 (Proc Natl Acad Sci U S A, 2008)
